{
  "source": "patent US20220235043A1",
  "about": "“SUBSTITUTED SULFONAMIDE PYRROLOPYRIDINES AS JAK INHIBITORS” (ACLARIS THERAPEUTICS, INC., priority 2019, published 2022)",
  "key": {"[1]": {"target": "T1, JAK1 (Homo sapiens, UniProt P23458)", "T1 construct": "purchased Thermo Fisher Scientific (SelectScreen service)", "T1 sequence (P23458 whole entry)": "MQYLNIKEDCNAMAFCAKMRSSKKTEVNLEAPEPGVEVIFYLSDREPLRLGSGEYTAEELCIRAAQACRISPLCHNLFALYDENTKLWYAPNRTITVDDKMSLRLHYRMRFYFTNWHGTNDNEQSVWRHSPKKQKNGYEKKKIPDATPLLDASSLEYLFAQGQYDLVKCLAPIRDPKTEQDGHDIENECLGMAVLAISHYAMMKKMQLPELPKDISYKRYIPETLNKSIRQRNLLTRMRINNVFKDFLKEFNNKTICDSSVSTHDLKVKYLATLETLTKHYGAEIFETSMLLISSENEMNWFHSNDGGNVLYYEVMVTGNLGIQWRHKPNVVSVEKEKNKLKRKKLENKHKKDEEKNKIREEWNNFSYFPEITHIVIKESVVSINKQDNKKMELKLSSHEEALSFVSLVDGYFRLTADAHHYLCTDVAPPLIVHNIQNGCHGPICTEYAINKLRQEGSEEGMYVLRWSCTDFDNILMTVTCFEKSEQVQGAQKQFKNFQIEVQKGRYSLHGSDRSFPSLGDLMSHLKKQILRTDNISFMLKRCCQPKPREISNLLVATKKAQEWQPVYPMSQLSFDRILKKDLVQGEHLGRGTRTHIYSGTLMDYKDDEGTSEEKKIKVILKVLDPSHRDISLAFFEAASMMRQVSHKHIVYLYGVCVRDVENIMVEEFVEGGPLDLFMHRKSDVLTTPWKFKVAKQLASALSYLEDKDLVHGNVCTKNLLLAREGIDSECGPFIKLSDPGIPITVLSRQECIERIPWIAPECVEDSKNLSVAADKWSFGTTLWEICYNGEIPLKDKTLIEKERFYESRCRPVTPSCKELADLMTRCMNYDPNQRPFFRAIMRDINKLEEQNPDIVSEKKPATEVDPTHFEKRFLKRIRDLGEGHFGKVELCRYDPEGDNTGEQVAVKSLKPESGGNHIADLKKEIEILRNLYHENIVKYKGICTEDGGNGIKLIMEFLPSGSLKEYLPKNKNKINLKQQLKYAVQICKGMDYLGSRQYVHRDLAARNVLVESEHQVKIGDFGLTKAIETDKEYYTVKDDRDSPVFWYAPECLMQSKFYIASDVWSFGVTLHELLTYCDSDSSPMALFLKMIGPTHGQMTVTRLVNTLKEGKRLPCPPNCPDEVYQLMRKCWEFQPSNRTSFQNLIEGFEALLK", "experiment": "JAK1 enzyme activity assay (Thermo Fisher Selectscreen, Z-lyte)", "assay_type": "biochemical", "details": "read-out: JAK1 Inhibition IC50", "summary_of_the_method": "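Z-lyte FRET kinase assay with 21.2-91.5 ng JAK1 and 2 μM Tyr 06 peptide in 50 mM HEPES pH 7.0, 10 mM MgCl2, 1 h reaction before development reagent. Background without enzyme, uninhibited signal with 2% DMSO vehicle; 11-point dose-response, IC50 from 4-parameter logistic fit of emission ratio.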"}, "[2]": {"target": "T2, Tyk-2 (Homo sapiens, UniProt P29597)", "T2 construct": "purchased Thermo Fisher Scientific (SelectScreen service)", "T2 sequence (P29597 whole entry)": "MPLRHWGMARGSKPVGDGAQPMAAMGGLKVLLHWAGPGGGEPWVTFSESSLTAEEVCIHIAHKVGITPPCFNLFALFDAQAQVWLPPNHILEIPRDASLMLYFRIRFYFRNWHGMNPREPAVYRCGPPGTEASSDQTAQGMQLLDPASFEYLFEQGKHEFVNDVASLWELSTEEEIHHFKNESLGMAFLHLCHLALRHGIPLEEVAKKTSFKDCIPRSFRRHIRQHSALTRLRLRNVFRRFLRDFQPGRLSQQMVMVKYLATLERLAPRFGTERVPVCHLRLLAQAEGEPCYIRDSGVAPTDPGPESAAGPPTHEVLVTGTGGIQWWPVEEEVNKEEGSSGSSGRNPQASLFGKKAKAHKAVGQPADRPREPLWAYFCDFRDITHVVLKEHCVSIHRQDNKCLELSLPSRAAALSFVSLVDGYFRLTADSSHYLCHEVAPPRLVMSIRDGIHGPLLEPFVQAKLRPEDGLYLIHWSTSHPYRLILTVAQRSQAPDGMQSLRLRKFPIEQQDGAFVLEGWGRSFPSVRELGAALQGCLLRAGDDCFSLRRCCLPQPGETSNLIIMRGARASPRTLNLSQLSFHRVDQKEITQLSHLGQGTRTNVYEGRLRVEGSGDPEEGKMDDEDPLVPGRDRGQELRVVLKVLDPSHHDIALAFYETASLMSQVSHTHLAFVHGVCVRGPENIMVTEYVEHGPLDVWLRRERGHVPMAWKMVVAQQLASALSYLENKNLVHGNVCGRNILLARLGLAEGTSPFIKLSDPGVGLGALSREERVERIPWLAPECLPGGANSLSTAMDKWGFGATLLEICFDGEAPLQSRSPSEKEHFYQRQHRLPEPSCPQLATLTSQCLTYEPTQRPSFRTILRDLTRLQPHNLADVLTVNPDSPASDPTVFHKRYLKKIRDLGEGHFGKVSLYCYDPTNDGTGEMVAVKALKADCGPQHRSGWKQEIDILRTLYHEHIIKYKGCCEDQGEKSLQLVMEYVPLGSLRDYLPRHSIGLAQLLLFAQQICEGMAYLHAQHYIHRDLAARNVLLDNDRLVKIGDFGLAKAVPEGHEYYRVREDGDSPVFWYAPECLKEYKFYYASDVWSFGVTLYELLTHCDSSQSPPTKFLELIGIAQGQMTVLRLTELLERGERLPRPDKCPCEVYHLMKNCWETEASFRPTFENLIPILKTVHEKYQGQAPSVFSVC", "experiment": "Tyk-2 enzyme activity assay (Thermo Fisher Selectscreen, Z-lyte)", "assay_type": "biochemical", "details": "read-out: Tyk-2 Inhibition IC50", "summary_of_the_method": "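Z-lyte FRET assay with 3.75-15 ng TYK2 and 2 μM Tyr 03 peptide in 50 mM HEPES pH 7.0, 10 mM MgCl2, 1 mM EGTA, 0.01% BRIJ-35. Reaction ran one hour before development reagent was added. Compounds were tested in an 11-point dose-response; IC50 came from a 4-parameter logistic fit of emission ratio, normalised to no-enzyme and 2% DMSO vehicle controls.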"}, "[3]": {"test_system": "IL-12 stimulated STAT4 phosphorylation on Tyr693 (JAK2/TYK2)", "experiment": "JAK2/TYK2 cellular target modulation: IL-12 stimulated phospho-STAT4 in human PBMC", "assay_type": "cell-based", "details": "IL-12 1.7 ng/ml, read-out: IL12-STAT4 IC50", "summary_of_the_method": "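Thawed human PBMC (200,000/well) preincubated with compound 1 h at 37°C, then stimulated with IL-12 1.7 ng/ml for 25 min, IFNγ 10 ng/ml for 10 min, or IL-2 25 ng/ml for 5 min. Lysate phospho-STAT4 Tyr693 and phospho-STAT5 Tyr694 read by MSD; phospho-STAT1 Tyr701 by sandwich ELISA.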"}, "[4]": {"target": "T3, JAK3 (a.a. 781-1124) (Homo sapiens, UniProt P52333)", "T3 construct": "JAK3 (a.a. 781-1124, ThermoFisher); purchased ThermoFisher", "T3 sequence (P52333 781-1124)": "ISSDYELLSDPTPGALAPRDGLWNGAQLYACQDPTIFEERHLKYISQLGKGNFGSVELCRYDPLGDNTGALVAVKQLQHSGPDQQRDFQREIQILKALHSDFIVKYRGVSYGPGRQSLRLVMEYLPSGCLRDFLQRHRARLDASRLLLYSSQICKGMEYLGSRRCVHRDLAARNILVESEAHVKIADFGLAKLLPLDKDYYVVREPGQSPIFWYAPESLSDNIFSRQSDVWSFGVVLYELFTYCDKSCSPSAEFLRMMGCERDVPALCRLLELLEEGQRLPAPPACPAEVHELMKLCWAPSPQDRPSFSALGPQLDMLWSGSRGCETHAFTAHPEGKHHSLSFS", "experiment": "JAK3 enzyme activity assay (SRCtide phosphorylation, Caliper)", "assay_type": "biochemical", "details": "1 uM ATP; read-out: JAK3 Inhibition IC50", "summary_of_the_method": "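Kinase reactions used 2.5 nM JAK3 (aa 781-1124), 1 μM FAM-SRCtide and 1 uM ATP in HEPES pH 7.5, MgCl2, BSA, Tween-20, 2% DMSO. Incubation was 40 min at room temperature, stopped with EDTA. Phospho/unphospho peptide separated by Caliper mobility shift; IC50 from 11-point 3-fold 4-parameter fits.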"}},
  "data": [
    {"smiles": "Cc1nnc(-c2cnc3[nH]ccc3c2N[C@H]2C[C@@H](NS(=O)(=O)c3cccc(C#N)c3)C2)s1", "note": "[Example 75, 3-cyano-N-((1s,3s)-3-((5-(5-methyl-1,3,4-thiadiazol-2-yl)-1H-pyrrolo[2,3-b]pyridin-4-yl)amino)cyclobutyl)benzenesulfonamide]", "values": [
      {"measurement": "IC50", "setting": "[1]", "value": "≤ 10", "unit": "nM"},
      {"measurement": "IC50", "setting": "[2]", "value": "≤ 10", "unit": "nM"},
      {"measurement": "IC50", "setting": "[3]", "value": "100 to 1000", "unit": "nM"},
      {"measurement": "IC50", "setting": "[4]", "value": "10 to 100", "unit": "nM"}
    ]}
  ]
}
